Where two headings read alike, the source gives them in different places.

One data set deals with HCT116 cells. The experiment in a line: MTT cell toxicity assay. To be noted: Homo sapiens, HCT-116, 72 h incubation. In kind it is cell-based. The method, then:
Cell proliferation assays were carried out using a colorimetric 3-(4,5-dimethylthiazol-2-yl)-2,5-diphenyltetrazolium bromide (MTT) assay (Sigma). 1.5×10^3 HCT116 cells, purchased from ATCC, were plated in 96-well plates at in 100 μL of culture medium in triplicates. Next day three fold dilutions of the compounds to be tested were made in culture medium so that, when diluted, the final concentration in the wells ranged from 0 to 10 μM. 25 μL of compounds dilutions in the medium was added to 100 μL of cells and incubated at 37° C. and 5% CO2 for 72 h. Cells were then incubated with 40 μL of 5 mg/mL MTT reagent at 37° C. for 3 h. The medium was carefully removed and crystals dissolved in 100 μL of DMSO. The absorbance was measured at 570 nm with the Wallac VICTOR2 1420 Multilabel Counter (PerkinElmer) and analysis performed to calculate the GI50 using GraphPad PRISM.
For orientation: Formazan colour is commonly taken as a measure of viable cells.

A short description of data set [1]: Pharmacokinetic profile in mice (Mouse PK). In kind it is in vivo. To be noted: female, BALB/c, whole blood, 5 mg/kg, i.v. and p.o. at 5 mg/kg.
Data set [2] can be described thus: Human liver microsomal stability (HLM assay). In kind it is in vitro ADME. To be noted: human liver microsomes 1 mg/mL, 10 μmol/L test compound, 37° C. The method, then:
The human liver microsomal stability of the compounds of the invention was tested using the following procedure:
Mixed gender pooled human liver microsomes were purchased from Tebu-bio (Peterborough, U.K.). Samples contained final concentrations of 1 mg/mL microsomal protein, 3 mmol/L MgCl2, 1 mmol/L NADPH, 2.5 mmol/L, UDP-glucuronic acid, and 10 mmol/L phosphate buffer (pH 7.4) (all purchased from Sigma Aldrich, Gilingham, U.K). Reactions, at 37° C., were started by addition of 10 μmol/L test compound and were terminated at 0, 15 and 30 minutes by the addition of 3 volumes of ice-cold methanol containing internal standard. Samples were centrifuged at 2,800×g for 30 minutes at 4° C. and the supernatants analyzed. Control incubations were prepared as above with omission of cofactors. […]

The target in another data set is T1, full length Mps1 (Homo sapiens, UniProt P33981).
T1 construct: black 384-well low volume plates containing full length Mps1 (12.5 nM or 3 nM)
T1 sequence (P33981 1-857): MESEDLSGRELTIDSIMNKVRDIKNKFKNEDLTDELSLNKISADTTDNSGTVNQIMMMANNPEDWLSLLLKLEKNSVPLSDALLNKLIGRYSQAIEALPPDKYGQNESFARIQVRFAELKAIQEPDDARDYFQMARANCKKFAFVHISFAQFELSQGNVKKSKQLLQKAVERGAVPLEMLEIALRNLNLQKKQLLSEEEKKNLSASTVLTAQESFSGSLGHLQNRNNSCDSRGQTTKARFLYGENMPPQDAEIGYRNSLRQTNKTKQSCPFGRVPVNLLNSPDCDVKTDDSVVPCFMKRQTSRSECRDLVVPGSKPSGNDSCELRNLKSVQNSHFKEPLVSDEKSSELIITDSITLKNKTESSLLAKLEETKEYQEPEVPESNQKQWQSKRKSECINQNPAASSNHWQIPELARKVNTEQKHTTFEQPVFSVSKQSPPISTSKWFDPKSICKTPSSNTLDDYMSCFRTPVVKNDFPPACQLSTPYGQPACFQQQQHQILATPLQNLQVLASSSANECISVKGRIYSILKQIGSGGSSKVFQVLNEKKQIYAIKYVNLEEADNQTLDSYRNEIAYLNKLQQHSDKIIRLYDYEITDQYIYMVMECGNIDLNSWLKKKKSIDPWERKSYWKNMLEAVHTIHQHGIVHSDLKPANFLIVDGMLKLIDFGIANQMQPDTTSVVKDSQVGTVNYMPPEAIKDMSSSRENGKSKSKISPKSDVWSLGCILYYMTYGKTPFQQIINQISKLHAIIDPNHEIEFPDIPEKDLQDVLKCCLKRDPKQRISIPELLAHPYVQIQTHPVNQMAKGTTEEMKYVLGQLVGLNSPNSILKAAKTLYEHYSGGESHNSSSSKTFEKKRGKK
Kind of data set: Measurement of inhibition of Mps1 kinase (Caliper EZ reader, H236 peptide). To be noted: full length Mps1, 60 min at room temperature. In kind it is biochemical. The method, then: The enzyme reaction (total volume 10 μl) was carried out in black 384-well low volume plates containing full length Mps1 (12.5 nM or 3 nM), fluorescent labelled peptide [known as H236, which has the sequence: 5FAM-[…]-CONH2] (5 μM), ATP ([…]), either DMSO (1% v/v) or the test compound (in the range 0.25 nM-100 μM in 1% DMSO) and assay buffer (50 mM HEPES (pH 7.0), 0.02% NaN3, 0.01% BSA, 0.1 mM Orthovandate, […], […], Roche protease inhibitor). The reaction was carried out for 60 min at room temperature and stopped by the addition of buffer (10 μl) containing 20 mM EDTA, 0.05% (v/v) Brij-35, in 0.1M HEPES-buffered saline (Free acid, Sigma, UK). The plate was read on a Caliper EZ reader II (Caliper Life Sciences).
The % inhibition of the compounds is calculated relative to the means of selected control wells. […] The % inhibitions at each concentration are then fitted to a 4 parameter logistic fit: y=(a+((b−a)/(1+((c/x^d)))) where a=asym min, b=asym max, c=IC50 and d=hill coefficient

Setting [3] is: read-out: MTT assay HCT116 GI50.
[4] abbreviates: read-out: GI50 in the MTT assay.

As a reminder, the GI50 is the concentration giving 50% growth inhibition. For `Cn1cc(C2=[N+](C(=O)OC(C)(C)C)c3cc(Nc4ccc(-c5nncn5C)cc4Cl)ncc3C2)cn1` [Comparator 1, reference compound], in the data set with HCT116 cells (setting [3]), the GI50 worked out at 360 nM. Further, in data set [1], the clearance was determined as 5 mL/min/kg. Besides, in data set [2], the “HLM Assay (% of parent compound degraded at 30 minutes)” value was 22.1%.

Turning to `Cn1cc(C2=[N+](C(=O)OC(C)(C)C)c3cc(Nc4ccc(-c5ccnn5C)cc4Cl)ncc3C2)cn1` [Comparator 3, reference compound], the GI50 in the data set on HCT116 cells (setting [3]) was determined as 548 nM. In addition, the “HLM Assay (% of parent compound degraded at 30 minutes)” value in data set [2] turned out to be 39%.

Usually IC50 stands for the concentration that gives 50% inhibition. Low readings indicate greater potency in that assay, high ones weaker potency in that assay. Turning to `COc1cc(-c2cnnn2C)ccc1Nc1cc2c(cn1)cc(-c1cnn(C)c1)n2C(=O)OC(C)C` [Example 1, Isopropyl 6-(2-methoxy-4-(1-methyl-1H-1,2,3-triazol-5-yl)phenylamino)-2-(1-methyl-1H-pyrazol-4-yl)-1H-pyrrolo[3,2-c]pyridine-1-carboxylate], the GI50 in the data set on HCT116 cells (setting [4]) is at most 150 nM; in the data set on HCT116 cells (setting [3]) it was 59.4 nM. This compound also registered a clearance in data set [1] of under 3.5 mL/min/kg. For the same compound, the 50% inhibitory concentration (IC50) against full length Mps1 worked out at 1.2 nM.

For `COc1cc(-c2nnnn2C)ccc1Nc1cc2c(cn1)cc(-c1cnn(C)c1)n2C(=O)OC(C)C` [Example 2, Isopropyl 6-(2-methoxy-4-(1-methyl-1H-tetrazol-5-yl)phenylamino)-2-(1-methyl-1H-pyrazol-4-yl)-1H-pyrrolo[3,2-c]pyridine-1-carboxylate], the GI50 is at most 150 nM with HCT116 cells (setting [4]) and 104 nM with HCT116 cells (setting [3]). On full length Mps1, this compound showed an IC50 of 2.8 nM.

The values above are taken from patent publication US10501462B2, “Pyrrolo[3,2-c]pyridine-6-amino derivatives” (CANCER RESEARCH TECHNOLOGY LIMITED, priority 2015, dated 2019).
